Test results taken from PubChem BioAssay (NCI).
Several values for one entry are separate records, joined by “and”; a condition that tells them apart may be missing. Equal entries are not always repeated.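 96-well plates; 48 h exposure; 5 concentrations. Endpoints by linear interpolation between flanking doses. Not reached: highest tested concentration assigned. GI50: concentration for 50% inhibition of growth. At the TGI there is no net growth.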 Where a SMILES comes first, the peptide text is derived from it. The star is where a group is joined. Trt = c1ccc(C(c2ccccc2)(c2ccccc2)*)cc1; Cbz = O=C(OCc1ccccc1)*

What was measured:
Assay in all cases: NCI-60 cell line screen, 48 h
M14 melanoma = test system: M14 melanoma
SNB-19 CNS = test system: SNB-19 CNS
NCI-H522 lung = test system: NCI-H522 lung
DU-145 prostate = test system: DU-145 prostate
HT29 colon = test system: HT29 colon
SF-268 CNS = test system: SF-268 CNS
CCRF-CEM leukemia = test system: CCRF-CEM leukemia
NCI-H23 lung = test system: NCI-H23 lung
UO-31 renal = test system: UO-31 renal
SF-539 CNS = test system: SF-539 CNS

Compound	GI50 (M14 melanoma)	TGI (M14 melanoma) [µM]	GI50 (SNB-19 CNS) [µM]	TGI (SNB-19 CNS) [µM]	GI50 (NCI-H522 lung) [µM]	TGI (NCI-H522 lung) [µM]	GI50 (DU-145 prostate)	TGI (DU-145 prostate) [µM]	GI50 (HT29 colon) [µM]	TGI (HT29 colon) [µM]	GI50 (SF-268 CNS) [µM]	TGI (SF-268 CNS) [µM]	GI50 (CCRF-CEM leukemia) [µM]	TGI (CCRF-CEM leukemia) [µM]	GI50 (NCI-H23 lung) [µM]	TGI (NCI-H23 lung) [µM]	GI50 (UO-31 renal) [µM]	TGI (UO-31 renal) [µM]	GI50 (SF-539 CNS) [µM]	TGI (SF-539 CNS)
O=C1/C(=C/c2ccc(Cl)c(Cl)c2)CN(C(=O)C(Cl)Cl)C/C1=C\c1ccc(Cl)c(Cl)c1	0.206 µM	0.587	0.11	0.306	0.27	1.2	0.369 µM	1.41	0.071	2.07	0.243	1.14	0.0372	> 100	0.136	0.567	0.133	0.267	0.184	0.444 µM
COc1cc(CNCCCCCCN2C(=O)c3cccc4cccc(c34)C2=O)ccc1O	1.97 µM	3.85	13.6	28.5	2.32	7.97	6.08 µM	18.9	2.62	10.1	8.4	24.8	3.53	29.3	10.8	25.2	2.65	15.2	1.82	3.83 µM
CCCCN(CCCC)C(=O)[C@H](CC)[C@@H]1CC[C@@H](C)[C@@H]([C@H](C)[C@@H](O)[C@@H](C)C(=O)[C@H](CC)C2O[C@]3(C=C[C@@H](O)[C@]4(CC[C@@](C)([C@H]5CC[C@](O)(CC)[C@H](C)O5)O4)O3)[C@H](C)C[C@@H]2C)O1 (stereo partly specified)			3.46	> 100	2.08	5.44	2.61 µM	6.42	2.88	12.4	3.17	> 100	3.13	11.7	2.17	5.96	2.26	8.6	1.88	4.2 µM
CCN(CC)c1ccc(/C=C/C(=O)c2ccc(Nc3nc(Nc4ccccc4)nc(Nc4ccccc4)n3)cc2)cc1	3.02 µM	> 100	41.3	> 100	5.94	> 100	5.04 µM	79.2	20.3	> 100	8.51	47.2	3.15	> 100	11.1	> 100	2.69	> 100	9.08	> 100 µM
O=C1Nc2ccc(Cl)cc2/C1=C\c1c(-c2ccc(Cl)cc2)nc2sc(C3CC3)nn12	5.77 µM	21.8	3.59	16.7	4.5	26.3	5.73 µM	17.6	5.61	17.4	3.21	12.9	19.8	> 100	4.39	17.6	2.63	14.8	1.88	3.78 µM
C=C1C(=O)O[C@H]2[C@H]1CC/C(COC(=O)c1cc(OC)c(OC)c(OC)c1)=C\CC[C@@]1(C)O[C@@H]21	1.27 µM	3.05	2.55	10.6	0.589	2.25	1.23 µM	2.47	0.441	2.09	1.46	3.42	0.293	2.28	1.7	3.95	0.402	1.7	0.895	2.24 µM
COC(=O)C(CO)NC(=O)C(CSC(c1ccccc1)(c1ccccc1)c1ccccc1)NC(=O)OCc1ccccc1 (stereo unspecified) (Cbz-Cys(Trt)-Ser-OMe; configuration not given here)		44		50.7		34.3		43.4		33.3		44.9		7.63		40.8		28.5		26.3 µM
C[C@@]1([C@H](OC(=O)c2ccccc2)C(N)=O)CO1	22.1 µM	53.9	30.5	93.6	22.2	76.5	27.2 µM	> 100	27	> 100	19.4	50	19.7	> 100	20.2	61.5	20.2	51.8	21.6	55.7 µM
Cn1cc(/C=C\[N+](=O)[O-])c2ccccc21	37.1 µM	> 100	75	> 100	> 100	> 100	29.7 µM	81.7	21.4	39.8	> 100	> 100	25.2	> 100	74.7	> 100	> 100	> 100	23.5	49.1 µM
CC1CC2C3CCC4=CC(=O)C=CC4(C)C3(F)C(O)CC2(C)C1(O)C(=O)COP(=O)(O)O (stereo unspecified)	> 500 µM	> 500	> 500	> 500	> 500	> 500	> 500 µM	> 500	> 500	> 500	> 500	> 500	> 500	> 500	> 500	> 500	> 500	> 500	> 500	> 500 µM
COc1cnc2c(c1)C(=O)c1c-2n(CCCNC2=NCCS2)c(=O)c2cc(F)ccc12	0.17 µM	1.32	0.15	2.61	0.0381	1.28	0.144 µM	1.63	0.0753	2.02	0.135	2.58	0.0402	5.49	0.22	1.66	0.108	1.12	0.305	1.09 µM
NS(=O)(=O)c1ccc(Nc2cc(-c3ccc(O)c(F)c3)[nH]n2)cc1	15.4 µM	> 25	> 25	> 25	13.9	> 25	> 25 µM	> 25	> 25	> 25	10.3	> 25	13.5	> 25	> 25	> 25	> 25	> 25	13.5	> 25 µM
CO[C@H]1C[C@@H]2CC[C@@H](C)[C@@](O)(O2)C(=O)C(=O)N2CCCC[C@H]2C(=O)O[C@H]([C@H](C)C[C@@H]2CC[C@@H](OC(=O)C(C)(CO)CO)[C@H](OC)C2)CC(=O)[C@H](C)/C=C(\C)[C@@H](O)[C@@H](OC)C(=O)[C@H](C)C[C@H](C)\C=C/C=C/C=C/1C	> 6.06 µM	> 10		> 10	0.444	> 10	0.045 µM	> 10	1.47	> 10		> 10	0.0368	> 10	0.0866	> 10	0.00102	> 10	0.00576	> 10 µM
CCOC(=O)[C@@H](C)C[C@H](Cc1ccccc1)NC(=O)c1csc([C@@H](C[C@H](C(C)C)N(C)C(=O)[C@@H](NC(=O)[C@H]2CCCCN2C)C(C)(C)CC)OC(C)=O)n1	< 0.00167 µM	1.8	< 0.00167	> 16.7	< 0.00167	0.0397	< 0.00167 µM		< 0.00167	> 6.79	0.00278	> 12.8	0.00246	> 8.65	0.00251	> 16.7	0.0132	14.1	0.00226	0.00791 µM
C#Cc1cccc(Nc2ncnc3cc(NC(=O)CCl)ccc23)c1	2.56 µM	6.4	2.96	6.03	0.414	0.894	2.8 µM	5.91	1.06	5.74	3.3	8.55	0.626	2.7	3.26	8.01	2.55	5.6	3.48	6.82 µM
C=C1C[C@H]2C=Nc3cc(OCCCOc4cc5c(cc4OC)C(=O)N4CC(=C)C[C@H]4C=N5)c(OC)cc3C(=O)N2C1	0.00858 µM and < 0.013 µM	0.0846	0.00545	4.39		0.0309	0.00496 µM and < 0.0133 µM	24		19.7			0.00019	0.0144		0.0158		0.289	0.00459	0.0117 µM and 0.0286 µM
COc1cccc2c1-c1nc(N)c3c(OC)cccc3c1C2=O		> 100				> 100		> 100		> 100		> 100		> 100		> 100		> 100		> 100 µM
CCOC(=O)c1c(-c2ccccc2)[n+](=O)c2cc(Cl)c(Cl)cc2n1[O-]	13.3 µM	27.9	17.7	35.1	14.2	> 100	9.4 µM	22.9	12	36.3	16.6	33.9			10.1	25.8	3.03	> 100	15.5	32 µM
